Results as given in patent US20110312992A1, “Inhibitors of C-Kit and Uses Thereof” (priority 2006, published 2011).
Where a name gives a salt, the structure may show the parent alone.

Columns and labels:
c-Kit = c-Kit (Homo sapiens, UniProt P10721); assay: c-Kit kinase enzymatic assay (tyrosine phosphorylation, UpState protocol); assay type: biochemical; conditions: FIG. 5
Protocol: IC50 values were determined for compounds of Examples 1, 10, 12 and 13 using a c-Kit kinase enzymatic assay. Phosphorylation of tyrosine was measured using a kinase assay protocol as provided by UpState Cell Signaling Solutions (Lake Placid, N.Y.). […] The results of the kinase assays validate the modeling and assessment of the structure/activity relationship data.

OCI/AML3 [1] = assay: MTT-based cell proliferation/toxicity assay, OCI/AML3; set-up: species or system human; conditions: for ability to reduce cell line (dose response): OCI/AML3, FIG. 25
Description: (§1) An MTT- (3,(4,5-dimethylthiazol-2-yl)-5-(3-carboxymethoxyphenyl)-2-(4-sulfophenyl)-2H-tetrazolium) based cell proliferation/toxicity assay system (Promega, Madison, Wis.) using cell lines, including the AML cell lines OCIM2 and OCI/AML3, was used to evaluate the effectiveness of the compounds as set forth herein in inhibition of c-Kit cellular activity.
(§2) AML cell lines OCIM2 and OCI/AML3 are human erythroleukemia lines and were provided by M. D. Minden, (Ontario Cancer Institute, Toronto, ON, Canada and as referenced in: Papayannopoulou et al., Blood (1988) 72:1029-1038; Wang et al., Leukemia (1989) 3: 236-249). Cells were maintained in RPMI 1640 culture medium (GIBCO, Grand Island, N.Y.) supplemented with 10% FCS (Flow Laboratories, McLean, Va.) and split twice weekly.
(§3) Briefly, cells were harvested at the logarithmic phase of their growth. They were then washed twice in RPMI 1640 containing 10% FCS and counted in a hemocytometer, and their viability was determined using 0.1% trypan blue staining. Equal numbers of viable cells (5×10^4 cells per well) were incubated in RPMI 1640 medium supplemented with 10% FCS alone or with the candidate drugs at increasing concentrations; the incubations were continued for 72 h in 96-well flat-bottomed plates (Linbro; Flow Laboratories, McLean, Va.) at 37° C. in a humidified 5% CO2 atmosphere. After incubation, 20 μl of CellTiter96 One Solution Reagent (Promega) was added to each well. The plates were then incubated for an additional 60 min at 37° C. in a humidified 5% CO2 atmosphere. Immediately after incubation, absorbance was read using a 96-well plate reader at a wavelength of 490 nm. Each data point was determined six times before analysis.
(§4) While OCIM2 and OCI/AML3 are both AML cell lines, c-Kit is expressed to a much higher degree in the OCI/AML3 line versus OCIM2, as determined by the responsiveness to stem cell factor (SCF), which mediates c-Kit receptor dimerization, activation, and autophosphorylation (Blume-Jensen, et al., (1991) EMBO Journal 10, 4121-8).

OCI/AML3 [2] = assay: Cell cycle analysis in OCI/AML3; assay type: cell-based, human; conditions: OCI/AML3, FIG. 15
OCIM2 = assay: MTT-based cell proliferation/toxicity assay, OCIM2; set-up: species or system human
Description: as §1, §2, §3, §4

HCM1.2 cell line = assay: Systemic mastocytosis cell line with mutated c-Kit (position 816); assay type: cell-based; conditions: HCM1.2 (mutated c-Kit, position 816) vs HCM1.1 (wild-type), FIG. 12 and 13
Protocol: The effect of compound 1-[3-(4-fluoro)-1H-pyrazolo[3,4-b]pyridin-6-yl]-3,5-dimethoxy]benzene on two systemic mastocytosis cell lines with unmutated (wild-type) c-Kit (HCM1.1 cell line) and a cell line with mutated c-Kit (mutation at position 816) (HCM1.2 cell line) was also determined. Cell lines were obtained from Dr. Verstovsek (Leuk Res. 2006 Jun. 22, online prepublication).

[3] = Inhibition of cell proliferation in the absence and presence of SCF (FIG. 22); assay type: cell-based; conditions: absence vs presence of externally introduced SCF
AML5 = assay: Inhibition of cell proliferation of AML1-AML6 in the presence of SCF; assay type: cell-based; conditions: AML5 among AML1-AML6, in the presence of SCF, FIG. 23
OCI/AML3 [4] = assay: Colony-forming cell proliferation, OCI/AML3; assay type: cell-based, human; conditions: OCI/AML3, FIG. 18

Chain of c-Kit (P10721 26-976): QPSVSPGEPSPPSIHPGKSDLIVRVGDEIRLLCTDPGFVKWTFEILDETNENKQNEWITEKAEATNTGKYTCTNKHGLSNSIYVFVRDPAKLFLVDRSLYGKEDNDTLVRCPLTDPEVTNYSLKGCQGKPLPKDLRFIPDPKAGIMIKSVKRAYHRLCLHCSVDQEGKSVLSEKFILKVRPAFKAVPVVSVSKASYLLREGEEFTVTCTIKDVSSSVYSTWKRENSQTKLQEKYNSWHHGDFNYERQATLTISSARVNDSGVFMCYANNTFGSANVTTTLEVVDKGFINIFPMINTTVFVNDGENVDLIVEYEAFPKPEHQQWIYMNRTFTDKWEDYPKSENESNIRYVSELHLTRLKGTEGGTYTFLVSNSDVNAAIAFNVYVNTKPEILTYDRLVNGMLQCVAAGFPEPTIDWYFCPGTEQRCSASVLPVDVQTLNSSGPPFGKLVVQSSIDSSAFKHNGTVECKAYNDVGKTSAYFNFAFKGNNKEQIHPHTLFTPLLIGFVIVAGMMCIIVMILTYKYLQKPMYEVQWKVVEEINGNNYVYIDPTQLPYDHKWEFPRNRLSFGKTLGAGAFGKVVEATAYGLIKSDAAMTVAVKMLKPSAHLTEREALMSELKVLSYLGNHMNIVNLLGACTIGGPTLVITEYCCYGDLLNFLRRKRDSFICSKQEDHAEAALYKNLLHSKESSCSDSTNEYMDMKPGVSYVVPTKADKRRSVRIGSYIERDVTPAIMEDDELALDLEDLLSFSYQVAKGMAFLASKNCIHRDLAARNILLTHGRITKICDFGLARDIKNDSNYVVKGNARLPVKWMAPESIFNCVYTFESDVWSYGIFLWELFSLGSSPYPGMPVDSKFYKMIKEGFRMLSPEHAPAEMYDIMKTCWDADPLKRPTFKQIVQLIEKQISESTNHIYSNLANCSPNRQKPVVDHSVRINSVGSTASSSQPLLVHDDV

COc1ccc(-c2n[nH]c3nc(-c4cccc(NC(C)=O)c4)ccc23)cc1 [Example 1, 3-{(4-Methyloxyphenyl)-1H-pyrazolo[4,3-b]pyridin-6-yl}acetanilide]
IC50 (c-Kit): ~0.095 µM
EC50 (OCI/AML3 [1]; Homo sapiens, OCI-AML-3, cell viability, OCI/AML3, 72 h, FIG. 6): ~0.1 µM
ability to reduce cell line (dose response) (OCI/AML3 [1]): same effective ability to reduce OCI/AML3 cell line

CC(=O)Nc1cccc(-c2ccc3c(-c4ccc(F)cc4)n[nH]c3n2)c1 [Example 3, 3-[3-(4-Fluorophenyl)-1H-pyrazolo[3,4-b]pyridin-6-yl]acetanilide]
ability to reduce cell line (dose response) (OCI/AML3 [1]): same effective ability to reduce OCI/AML3 cell line

COc1cc(OC)cc(-c2ccc3c(-c4ccc(F)cc4)n[nH]c3n2)c1 [Example 10]
cell cycle effect (OCI/AML3 [2]): causes the accumulation of OCI/AML3 in Sub-G0 phase
sensitivity of proliferation (OCIM2; OCIM2, FIG. 16): less sensitive
proliferation of SCF-stimulated cells (OCIM2; OCIM2 with and without 50 ng/mL SCF, FIG. 9): inhibiting the proliferation
IC50 (c-Kit): > 100 µM
selectivity between mastocytosis cell lines (HCM1.2 cell line): selectivity for the cell line containing mutated c-Kit
effect of SCF on inhibition of cell proliferation [3]: enhanced by the presence of externally introduced SCF
inhibition of cell proliferation (AML5): less effective inhibition
sensitivity of proliferation (OCI/AML3 [1]; OCI/AML3, FIG. 16): quite sensitive
comparison with BMS-354825 and Gleevec (OCI/AML3 [1]; percent of control, FIG. 24): favorable comparison
colony-forming cell proliferation (OCI/AML3 [4]): inhibits

COc1ccc(-c2n[nH]c3nc(-c4cc(OC)cc(OC)c4)ccc23)cc1 [Example 12]
IC50 (c-Kit): ~1.2 µM
ability to reduce cell line (dose response) (OCI/AML3 [1]): same effective ability to reduce OCI/AML3 cell line

CCOC(=O)c1ccc(-c2n[nH]c3nc(-c4ccc(C(=O)NCCN(C)C)cc4)ccc23)cc1 [Example 13]
IC50 (c-Kit): ~3.6 µM
ability to reduce cell line (dose response) (OCI/AML3 [1]): same effective ability to reduce OCI/AML3 cell line

Cc1ccc(NC(=O)c2ccc(CN3CCN(C)CC3)cc2)cc1Nc1nccc(-c2cccnc2)n1 [imatinib mesylate, reference compound]
response of cell line to prior art compound (OCIM2; OCIM2 uninduced, FIG. 10): resistant
response of cell line to prior art compound (OCI/AML3 [1]; OCI-AML3 expressing c-Kit, FIG. 6 / FIG. 10): resistant
